Laboratory results published in patent publication EP4653450A1 (priority 2023, dated 2024).
Where “and” joins values, the source holds several entries; their conditions need not be identical. Equal values may be shown once.

How the values were obtained:
[1] = tested on: 47 safety-related targets
Text: For 78 tests related to 47 safe targets, the experimental methods used included: cAMP assay, calcium flux assay, hormone nuclear receptor assay, kinase binding assay, enzyme activity assay, neurotransmitter transporter assay, ion channel assay, and transporter assay.

[2] = tested on: human plasma protein
Experimental: Human plasma was purchased from BioIVT, anticoagulated with EDTA K2, and stored at -80 °C. The 96-well equilibrium dialysis plate was purchased from HTDialysis LLC. The equilibrium dialysis membrane was purchased from Gales Ferry.
The alkaline solution was titrated with the acidic solution until the pH value was 7.4, and the buffer could be stored at 4 °C for 7 days.
The dialysis membrane was soaked in ultrapure water for 60 min to separate the membrane into two pieces, then soaked with 20% ethanol for 20 min, and finally soaked with dialysis buffer for 20 min.
The frozen plasma was quickly thawed at room temperature.
The plasma was then centrifuged at 4 °C for 10 min at a centrifugal force of 3,220 g to remove clots, and the supernatant was collected into a new centrifuge tube. The pH of the plasma was measured and recorded.
A 10 mM DMSO stock solution of the test substance was prepared. 2 µL of the stock solution (10 mM) was diluted with 98 µL of DMSO to give a working solution (200 µM). […]
50 µL of blank plasma was added to the phosphate-buffered saline sample. […] The mixture was well mixed, and the sample was analyzed using liquid chromatography-mass spectrometry.
All calculations were performed by Microsoft Excel. The peak areas of the test substance on the buffer side and the plasma side were determined. […]

[3] = tested on: SARS-CoV-2 Delta strain (B.1.617.2); experiment: microbe, parasite or virus in culture; settings: Severe acute respiratory syndrome coronavirus 2, Vero C1008
[4] = tested on: SARS-CoV-2 Omicron strain (B.1.1.529); experiment: microbe, parasite or virus in culture; settings: Severe acute respiratory syndrome coronavirus 2, Vero C1008
[5] = cynomolgus monkey, in vivo
[6] = tested on: SARS-CoV-2 Delta strain; settings: mouse, in vivo

In the case of `CC(C)(C)C(NC(=O)C(F)(F)F)C(=O)N1CC2(CC1C(=O)NC(C#N)CC1CCNC1=O)SCCS2` (stereo not shown) [Compound of formula (I)], the EC50 [1] is reported as over 100 µM, the “Free rate (F%) Replicate 1” value [2] is reported as 48.71% and the “Free rate (F%) Replicate 2” value [2] is reported as 44.55%. For the same molecule, the IC50 [3] was 40 nM, the IC50 [4] was 120 nM and the arrhythmia [5] was “no test sample-related arrhythmia was observed”. For the same molecule, the cardiovascular system changes [5] was “no test sample-related cardiovascular system changes were observed”, the “changes in ECG parameters or blood pressure” value [5] was “no test sample-related changes in ECG parameters or blood pressure were observed” and the “Brain tissue (log10 copies/mg) Day 2” value [6] was 1.04±0.24 log10 copies/mg and 0.77±0.20 log10 copies/mg. For the same molecule, the body weight [6] was “not significantly reduced”, the “effect on viral titer in the lungs” value [6] was “sustained inhibitory effect” and the “histopathological analysis of the lungs” value [6] was “significantly ameliorated lung damage”. For the same molecule, the “reduction of viral copy number in the lungs” value [6] was 2.4 log10 copies/g, the “reduction of viral titer in the lungs (plaque assay)” value [6] was “more than 3 log10 PFU/g” and the “viral titer in the lungs (plaque assay)” value [6] was “the titer was not detected”. The “virus titer in the brains” value [6] was “no virus titer was detected”.
